Data: article PMC8348562, “Potential Assessment of UGT2B17 Inhibition by Salicylic Acid in Human Supersomes In Vitro” (Molecules, 2021)

T1: UGT2B17 (Homo sapiens, UniProt O75795)
T1 construct: recombinant human UGT2B17 supersomes (insect cells infected with baculovirus)
T1 sequence (O75795 24-530): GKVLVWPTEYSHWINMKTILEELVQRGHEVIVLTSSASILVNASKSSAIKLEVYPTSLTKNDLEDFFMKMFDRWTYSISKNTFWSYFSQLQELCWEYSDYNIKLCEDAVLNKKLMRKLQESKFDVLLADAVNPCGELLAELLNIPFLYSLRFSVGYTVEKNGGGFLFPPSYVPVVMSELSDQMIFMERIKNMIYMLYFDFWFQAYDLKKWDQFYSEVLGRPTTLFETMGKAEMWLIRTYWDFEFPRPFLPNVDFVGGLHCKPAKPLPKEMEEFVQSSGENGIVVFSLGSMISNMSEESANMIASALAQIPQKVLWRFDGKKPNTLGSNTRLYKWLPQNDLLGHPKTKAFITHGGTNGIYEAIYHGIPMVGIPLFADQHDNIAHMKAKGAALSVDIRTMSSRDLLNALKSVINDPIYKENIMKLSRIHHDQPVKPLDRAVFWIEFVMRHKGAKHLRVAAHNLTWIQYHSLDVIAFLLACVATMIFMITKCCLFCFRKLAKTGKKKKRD

B1: UGT2B17 (Homo sapiens) (protein)
chain: T1 sequence (O75795 24-530)

Tests used:
UGT2B17 = target: T1, UGT2B17; experiment: HPLC testosterone glucuronidation assay in recombinant supersomes, Lineweaver-Burk analysis at […] salicylic acid; assay type: biochemical
purified protein = substrate: C[C@]12CC[C@H]3[C@@H](CCC4=CC(=O)CC[C@@]43C)[C@@H]1CC[C@@H]2O; experiment: purified protein; settings: UDPGA; MgCl2

Row | Molecule | inhibition mode (UGT2B17) | Km (purified protein)
1 | O=C(O)c1ccccc1O [salicylic acid] | UGT2B17 enzyme activity was inhibited uncompetitively by salicylic acid based on the in vitro inhibition study in human supersomes | –
2 | B1 | – | 259.74 µM
